Article PMC12692968, “Design, Synthesis, Molecular Docking, and Anticancer Activity of Chalcone Derivatives as VEGFR-2 Inhibitors” (Molecules, 2025)

Columns and labels:
[1] = target: T1, VEGFR-2 (KDR) protein kinase (Homo sapiens, UniProt P35968); assay: VEGFR-2 (KDR) Kinase Assay Kit enzyme inhibition assay; format: biochemical; settings: Kinase-Glo MAX, 30 °C 45 min, mean ± SD, n = 3
T1 construct: purchased BPS Biosciences, San Diego, CA, USA
Experimental: Many studies have shown that abnormal VEGFR-2 signaling could induce proliferation of cervical squamous cell carcinoma cells, myeloid leukemia cancer cells, and melanoma cells. […] A VEGFR-2 (KDR) Kinase Assay Kit (BPS Biosciences, San Diego, CA, USA) was used to conduct a VEGFR-2 inhibition assay following the manufacturer’s protocol. Briefly, kinase buffer and ATP and PTK substrate (Poly-Glu,Tyr 4:1) were diluted with distilled water to prepare a master mix solution. The master mix solution, test sample, and VEGFR-2 (KDR) protein kinase (2 ng/μL) were added to a 96-well plate and incubated at 30 °C for 45 min. After incubation, Kinase-Glo™ MAX (BPS Biosciences) reagent was added to each well, and incubated for 15 min at room temperature. Then it was immediately detected with an ELISA reader. The experiments were replicated three times.

[2] = tested on: human chronic myeloid leukemia cell line K562; assay: CCK-8 cytotoxicity assay, K562 cells; format: cell-based; settings: for IC50: CCK-8, 48 h incubation, mean ± SD, n = 3
Experimental: (§1) The SiHa, K562, B16 and HK-2 cells were obtained from Wuhan Pricella Biotechnology Co., Ltd. (Wuhan, China). […] 2–5 × 10^3 cells were added to each well of a 96-well plate and incubated for 12 h, followed by the addition of the tested compounds. After incubation for 48 h, 10 μL of the CCK-8 solution was added to each well and incubated for another 2 h. The absorbance of each well was measured at 450 nm using an enzyme-linked immunosorbent assay (ELISA) reader. The experiments were replicated three times. The inhibition rate of cancer cells was calculated using the Formula (1). The half-maximal inhibitory concentration (IC50) value was calculated using GraphPad Prism 8.0 software.

[3] = tested on: human renal epithelial cell line HK-2; assay: CCK-8 cytotoxicity assay, HK-2 cells; format: cell-based; settings: Homo sapiens, Epithelial cell; CCK-8, 48 h incubation, mean ± SD, n = 3
Experimental: as §1, with “The cytotoxicity of synthesized compounds against HK-2 cells was also detected. […] The SiHa,” for “The SiHa,”

[4] = tested on: human cervical squamous cell carcinoma cell line SiHa; assay: CCK-8 cytotoxicity assay, SiHa cells; format: cell-based; settings: for IC50: Homo sapiens, SiHa, CCK-8, 48 h incubation, mean ± SD, n = 3
Experimental: as §1

[5] = tested on: mouse melanoma cell line B16; assay: CCK-8 cytotoxicity assay, B16 cells; format: cell-based; settings: for IC50: CCK-8, 48 h incubation, mean ± SD, n = 3
Experimental: as §1

T1 sequence (P35968 20-1356): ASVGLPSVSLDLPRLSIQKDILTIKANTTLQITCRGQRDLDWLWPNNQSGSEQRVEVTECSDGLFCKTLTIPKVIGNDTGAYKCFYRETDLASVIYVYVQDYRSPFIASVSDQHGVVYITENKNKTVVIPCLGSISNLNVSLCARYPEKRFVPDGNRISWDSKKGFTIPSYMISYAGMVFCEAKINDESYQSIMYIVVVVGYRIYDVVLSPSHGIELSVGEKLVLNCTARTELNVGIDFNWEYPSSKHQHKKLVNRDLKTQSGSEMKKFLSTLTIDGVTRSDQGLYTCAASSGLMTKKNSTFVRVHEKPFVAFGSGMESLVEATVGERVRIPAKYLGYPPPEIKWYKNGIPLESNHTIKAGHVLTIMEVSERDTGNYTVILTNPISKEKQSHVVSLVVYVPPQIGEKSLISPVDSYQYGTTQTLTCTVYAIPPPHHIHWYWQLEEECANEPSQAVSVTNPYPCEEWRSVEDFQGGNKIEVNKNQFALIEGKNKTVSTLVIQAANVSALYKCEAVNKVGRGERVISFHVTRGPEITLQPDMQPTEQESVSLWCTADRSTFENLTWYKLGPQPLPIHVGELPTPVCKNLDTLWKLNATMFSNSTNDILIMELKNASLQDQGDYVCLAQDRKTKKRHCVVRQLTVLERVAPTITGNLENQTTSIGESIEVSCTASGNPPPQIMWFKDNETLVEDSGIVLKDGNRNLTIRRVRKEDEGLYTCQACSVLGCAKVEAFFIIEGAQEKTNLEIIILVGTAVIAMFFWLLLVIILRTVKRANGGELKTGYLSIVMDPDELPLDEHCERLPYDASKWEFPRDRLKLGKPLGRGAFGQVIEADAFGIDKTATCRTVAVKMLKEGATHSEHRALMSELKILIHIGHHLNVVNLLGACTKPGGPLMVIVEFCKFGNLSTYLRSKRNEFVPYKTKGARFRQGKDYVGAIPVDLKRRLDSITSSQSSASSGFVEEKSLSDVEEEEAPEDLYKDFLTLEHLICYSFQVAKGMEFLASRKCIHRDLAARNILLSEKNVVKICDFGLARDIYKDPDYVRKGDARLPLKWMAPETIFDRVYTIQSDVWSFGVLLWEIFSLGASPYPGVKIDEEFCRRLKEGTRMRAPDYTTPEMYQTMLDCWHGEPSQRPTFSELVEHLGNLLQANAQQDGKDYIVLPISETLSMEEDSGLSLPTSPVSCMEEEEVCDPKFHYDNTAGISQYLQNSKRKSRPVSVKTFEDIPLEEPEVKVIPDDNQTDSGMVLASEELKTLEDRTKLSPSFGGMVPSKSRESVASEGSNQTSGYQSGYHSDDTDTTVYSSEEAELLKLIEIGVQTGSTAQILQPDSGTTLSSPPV

| Structure (SMILES) | IC50 [1] [µM] | IC50 ([2]; Homo sapiens, K562, 48 h) [µM] | fold increase in cytotoxicity compared to unsubstituted compound 2a, K562 ([2]; ratio of IC50 values vs 2a) [fold] | IC50 [3] [µM] | IC50 [4] [µM] | fold increase in cytotoxicity compared to unsubstituted compound 2a, SiHa ([4]; ratio of IC50 values vs 2a) [fold] | IC50 ([5]; Mus musculus, B16, 48 h) [µM] | fold increase in cytotoxicity compared to unsubstituted compound 2a, B16 ([5]; ratio of IC50 values vs 2a) [fold] | IC50 [2] [µM] | IC50 [5] [µM] | IC50 ([4]; 48 h) [µM] |
| --- | --- | --- | --- | --- | --- | --- | --- | --- | --- | --- | --- |
| O=C(Nc1ccc(C(=O)/C=C/c2ccc(F)cc2)cc1)Nc1ccc(Cl)c(C(F)(F)F)c1 [Compound 2c, (E)-1-(4-chloro-3-(trifluoromethyl)phenyl)-3-(4-(3-(4-fluorophenyl)acryloyl)phenyl)urea] | 0.68 ± 0.03 | 2.05 ± 0.13 | 6.2 | 15.7 ± 1.22 | 1.03 ± 0.02 | 4.3 | 5.02 ± 0.18 | 2.1 |  |  |  |
| COc1cc(/C=C/C(=O)c2ccc(NC(=O)Nc3ccc(Cl)c(C(F)(F)F)c3)cc2)cc(OC)c1 [Compound 2h, (E)-1-(4-chloro-3-(trifluoromethyl)phenyl)-3-(4-(3-(3,5-dimethoxyphenyl)acryloyl)phenyl)urea] |  | 1.62 to 2.02 |  | 9.87 ± 0.89 | 2.99 ± 0.27 |  | 1.62 to 2.02 |  | 2.02 ± 0.12 | 1.62 ± 0.14 |  |
| COc1cc(/C=C/C(=O)c2ccc(NC(=O)Nc3ccc(Cl)c(C(F)(F)F)c3)cc2)ccc1O [Compound 2p, (E)-1-(4-chloro-3-(trifluoromethyl)phenyl)-3-(4-(3-(4-hydroxy-3-methoxyphenyl)acryloyl)phenyl)urea] |  | 3.42 ± 0.18 |  | 13.9 ± 0.58 | 4.25 ± 0.14 |  | 4.37 ± 0.28 |  |  |  |  |
| COc1ccc(/C=C/C(=O)c2ccc(NC(=O)Nc3ccc(Cl)c(C(F)(F)F)c3)cc2)cc1O [Compound 2o, (E)-1-(4-chloro-3-(trifluoromethyl)phenyl)-3-(4-(3-(3-hydroxy-4-methoxyphenyl)acryloyl)phenyl)urea] | 0.31 ± 0.02 | 1.51 ± 0.16 |  | 19.1 ± 1.05 | 1.22 ± 0.07 |  | 3.06 ± 0.22 |  |  |  |  |
| COc1cc(/C=C/C(=O)c2ccc(NC(=O)Nc3ccc(Cl)c(C(F)(F)F)c3)cc2)cc(OC)c1O [Compound 2r, (E)-1-(4-chloro-3-(trifluoromethyl)phenyl)-3-(4-(3-(4-hydroxy-3,5-dimethoxyphenyl)acryloyl)phenyl)urea] |  | 0.97 ± 0.06 |  | 11.3 ± 0.66 | 2.22 ± 0.1 |  | 2.93 ± 0.29 |  |  |  |  |
| O=C(Nc1ccc(C(=O)/C=C/c2ccc(O)c(O)c2)cc1)Nc1ccc(Cl)c(C(F)(F)F)c1 [Compound 2q, (E)-1-(4-chloro-3-(trifluoromethyl)phenyl)-3-(4-(3-(3,4-dihydroxyphenyl)acryloyl)phenyl)urea] | 0.55 ± 0.04 | 1.12 ± 0.1 |  | 24.3 ± 1.71 | 2.53 ± 0.09 |  | 4.49 ± 0.24 |  |  |  |  |
| COc1ccc(/C=C/C(=O)c2ccc(NC(=O)Nc3ccc(Cl)c(C(F)(F)F)c3)cc2)c(OC)c1OC [Compound 2j, (E)-1-(4-chloro-3-(trifluoromethyl)phenyl)-3-(4-(3-(2,3,4-trimethoxyphenyl)acryloyl)phenyl)urea] |  | 2.4 ± 0.22 |  |  | 6.62 ± 0.28 |  | 9.73 ± 0.98 |  |  |  |  |
| CCc1ccc(/C=C/C(=O)c2ccc(NC(=O)Nc3ccc(Cl)c(C(F)(F)F)c3)cc2)cc1 [Compound 2i, (E)-1-(4-chloro-3-(trifluoromethyl)phenyl)-3-(4-(3-(4-ethylphenyl)acryloyl)phenyl)urea] |  | 4.45 ± 0.53 |  |  | 7.96 ± 0.26 |  | 8.66 ± 0.58 |  |  |  |  |
| O=C(Nc1ccc(C(=O)/C=C/c2ccco2)cc1)Nc1ccc(Cl)c(C(F)(F)F)c1 [Compound 2m, (E)-1-(4-chloro-3-(trifluoromethyl)phenyl)-3-(4-(3-(furan-2-yl)acryloyl)phenyl)urea] |  | 8.95 ± 0.76 |  |  | 6.53 ± 0.24 |  |  |  |  |  |  |
| O=C(Nc1ccc(C(=O)C=Cc2ccccc2)cc1)Nc1ccc(Cl)c(C(F)(F)F)c1 [Compound 2a, 1-(4-chloro-3-(trifluoromethyl)phenyl)-3-(4-cinnamoylphenyl)urea] |  | 12.7 ± 0.45 |  |  | 4.43 ± 0.16 |  | 10.7 ± 0.78 |  |  |  |  |
| COc1ccc(/C=C/C(=O)c2ccc(NC(=O)Nc3ccc(Cl)c(C(F)(F)F)c3)cc2)cc1 [Compound 2b, (E)-1-(4-chloro-3-(trifluoromethyl)phenyl)-3-(4-(3-(4-methoxyphenyl)acryloyl)phenyl)urea] |  | 5.08 ± 0.31 |  |  | 5.55 ± 0.26 |  | 8.32 ± 0.61 |  |  |  |  |
| O=C(Nc1ccc(C(=O)/C=C/c2cccc(Cl)c2)cc1)Nc1ccc(Cl)c(C(F)(F)F)c1 [Compound 2e, (E)-1-(4-chloro-3-(trifluoromethyl)phenyl)-3-(4-(3-(3-chlorophenyl)acryloyl)phenyl)urea] |  | 2.91 ± 0.17 |  |  | 4.71 ± 0.29 |  | 11.3 ± 0.64 |  |  |  |  |
| O=C(Nc1ccc(C(=O)/C=C/c2ccc(Cl)cc2)cc1)Nc1ccc(Cl)c(C(F)(F)F)c1 [Compound 2d, (E)-1-(4-chloro-3-(trifluoromethyl)phenyl)-3-(4-(3-(4-chlorophenyl)acryloyl)phenyl)urea] |  | 8.41 ± 0.57 |  |  | 4.78 ± 0.14 |  | 12.8 ± 0.84 |  |  |  |  |
| O=C(Nc1ccc(C(=O)/C=C/c2ccc(O)cc2)cc1)Nc1ccc(Cl)c(C(F)(F)F)c1 [Compound 2s, (E)-1-(4-chloro-3-(trifluoromethyl)phenyl)-3-(4-(3-(4-hydroxyphenyl)acryloyl)phenyl)urea] |  | 6.47 ± 0.36 |  |  | 8.96 ± 0.03 |  | 4.29 ± 0.52 |  |  |  |  |
| COc1cc(/C=C/C(=O)c2ccc(NC(=O)Nc3ccc(Cl)c(C(F)(F)F)c3)cc2)cc(OC)c1OC [Compound 2f, (E)-1-(4-chloro-3-(trifluoromethyl)phenyl)-3-(4-(3-(3,4,5-trimethoxyphenyl)acryloyl)phenyl)urea] | 0.39 ± 0.02 | 1.62 to 2.02 |  | 5.85 ± 0.36 | 4.89 ± 0.21 |  | 1.62 to 2.02 |  | 1.68 ± 0.09 | 1.65 ± 0.29 |  |
| O=C(Nc1ccc(C(=O)/C=C/c2cccs2)cc1)Nc1ccc(Cl)c(C(F)(F)F)c1 [Compound 2n, (E)-1-(4-chloro-3-(trifluoromethyl)phenyl)-3-(4-(3-(thiophen-2-yl)acryloyl)phenyl)urea] | 2.2 ± 0.1 | 15.2 ± 1.2 |  |  |  |  |  |  |  |  | > 20 |
| Cc1ccc(/C=C/C(=O)c2ccc(NC(=O)Nc3ccc(Cl)c(C(F)(F)F)c3)cc2)cc1C [Compound 2k, (E)-1-(4-chloro-3-(trifluoromethyl)phenyl)-3-(4-(3-(3,4-dimethylphenyl)acryloyl)phenyl)urea] |  | 1.73 ± 0.23 |  |  | 8.35 ± 0.09 |  | 6.42 ± 0.54 |  |  |  |  |
| Cc1ccc(/C=C/C(=O)c2ccc(NC(=O)Nc3ccc(Cl)c(C(F)(F)F)c3)cc2)cc1 [Compound 2g, (E)-1-(4-chloro-3-(trifluoromethyl)phenyl)-3-(4-(3-(p-tolyl)acryloyl)phenyl)urea] |  | 4.19 ± 0.26 |  |  | 6.03 ± 0.38 |  | 7.15 ± 0.49 |  |  |  |  |
